This is an account of results in patent publication US20210253575A1, “PYRROLIDINE AMINE COMPOUNDS FOR THE TREATMENT OF AUTOIMMUNE DISEASE” (Hoffmann-La Roche Inc., priority 2018, published 2021).

Each structure is given as a SMILES string.

In the test the target is T1, human TLR7 (Homo sapiens, UniProt Q9NYK1).
T1 sequence (Q9NYK1 27-1049): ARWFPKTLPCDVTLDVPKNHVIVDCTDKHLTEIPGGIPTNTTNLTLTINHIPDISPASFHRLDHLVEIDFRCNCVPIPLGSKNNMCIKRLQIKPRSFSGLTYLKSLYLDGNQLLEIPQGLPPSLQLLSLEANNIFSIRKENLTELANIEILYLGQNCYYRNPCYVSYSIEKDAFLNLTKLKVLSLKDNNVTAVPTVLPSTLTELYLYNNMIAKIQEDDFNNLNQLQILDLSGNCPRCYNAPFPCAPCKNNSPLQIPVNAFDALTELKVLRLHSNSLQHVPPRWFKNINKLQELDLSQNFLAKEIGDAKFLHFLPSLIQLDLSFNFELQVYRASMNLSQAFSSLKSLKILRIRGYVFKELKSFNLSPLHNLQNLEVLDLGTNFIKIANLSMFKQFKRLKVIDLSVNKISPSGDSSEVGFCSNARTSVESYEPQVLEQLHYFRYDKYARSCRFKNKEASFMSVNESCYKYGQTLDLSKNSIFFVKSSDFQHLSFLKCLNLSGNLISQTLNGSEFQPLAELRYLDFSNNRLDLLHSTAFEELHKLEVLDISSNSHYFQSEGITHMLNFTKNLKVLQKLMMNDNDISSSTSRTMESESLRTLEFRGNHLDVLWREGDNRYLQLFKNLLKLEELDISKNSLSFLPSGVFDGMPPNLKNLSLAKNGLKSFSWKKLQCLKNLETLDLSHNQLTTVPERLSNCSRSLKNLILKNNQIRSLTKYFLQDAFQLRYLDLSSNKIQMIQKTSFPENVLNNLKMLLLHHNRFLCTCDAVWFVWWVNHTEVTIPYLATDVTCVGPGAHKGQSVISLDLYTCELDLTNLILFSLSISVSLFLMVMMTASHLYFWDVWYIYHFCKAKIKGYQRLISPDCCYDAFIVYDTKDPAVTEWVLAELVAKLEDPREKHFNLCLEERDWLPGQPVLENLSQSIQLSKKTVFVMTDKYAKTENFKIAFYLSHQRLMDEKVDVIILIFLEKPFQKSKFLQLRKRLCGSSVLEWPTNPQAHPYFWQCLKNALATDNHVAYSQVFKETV
Kind of test: HEK293-Blue-hTLR-7 cells assay (SEAP reporter, R848 stimulation). The test is classed as cell-based. The settings on record: HEK293-Blue-hTLR7 cells, R848 ligand, 20 hrs incubation. In outline:
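Antagonism measured in stable HEK293-Blue-hTLR7 cells carrying an NF-κB/AP-1-driven SEAP reporter, stimulated with R848 (10 µL of 20 µM stock) with serially diluted compound, 1% DMSO, 20 h at 37 °C. Supernatant SEAP read with QUANTI-Blue after 2 h at 37 °C, absorbance 620–655 nm.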
Molecule `N#Cc1ccc(N2CC(CN3CCNCC3)C3(CC3)C2)c2nccnc12` (centres unmarked) [Example 3, 8-[7-(piperazin-1-ylmethyl)-5-azaspiro[2.4]heptan-5-yl]quinoxaline-5-carbonitrile] returned an IC50 of 27 nM.

As to `N#Cc1ccc(N2CC(CN3CC4CCC(C3)C4N)C3(CC3)C2)c2nccnc12` (centres unmarked) [Example 4, 8-[7-[(8-Amino-3-azabicyclo[3.2.1]octan-3-yl)methyl]-5-azaspiro[2.4]heptan-5-yl]quinoxaline-5-carbonitrile], the IC50 was found to be 28 nM.

Molecule `CN(C)[C@@H]1CCN(C[C@H]2CN(c3ccc(C#N)c4nccnc34)C[C@@H]2C(F)(F)F)C1` [Example 83, 8-[(3S,4R)-3-[[(3R)-3-(dimethylamino)pyrrolidin-1-yl]methyl]-4-(trifluoromethyl)pyrrolidin-1-yl]quinoxaline-5-carbonitrile] registered an IC50 of 25 nM.

For `CN1CCC2(CCN(C[C@H]3CN(c4ccc(C#N)c5nccnc45)C[C@@H]3C(F)(F)F)C2)C1` (stereo partly drawn) [Example 84, 8-[(3S,4R)-3-[(7-methyl-2,7-diazaspiro[4.4]nonan-2-yl)methyl]-4-(trifluoromethyl)pyrrolidin-1-yl]quinoxaline-5-carbonitrile], the IC50 amounted to 48 nM.

`CC1(CN)CCN(C[C@H]2CN(c3ccc(C#N)c4nccnc34)C[C@@H]2C(F)(F)F)C1` (stereo partly drawn) [Example 85, 8-[(3S,4R)-3-[[3-(aminomethyl)-3-methyl-pyrrolidin-1-yl]methyl]-4-(trifluoromethyl)pyrrolidin-1-yl]quinoxaline-5-carbonitrile] yielded an IC50 of 83 nM.

Usually IC50 stands for the concentration at which inhibition is half-maximal. Low readings indicate greater potency, high ones weaker potency.
